Reference: patent US20220257595A1, “MACITENTAN FOR USE IN TREATING PORTOPULMONARY HYPERTENSION” (ACTELION PHARMACEUTICALS LTD, priority 2019, published 2022)

Assays:
[1] = tested on: patients with PoPH; experiment: PORTICO: serum NT-proBNP (incl. post-hoc 300 ng/L threshold shift); assay type: in vivo, human
Method: (v) Serum NT-proBNP: A blood sample was drawn at Baseline (Visit 2/Randomization), EOT-DB, and/or EOT-OL (whichever came last) for the analysis of serum NT-proBNP. Serum NT-proBNP samples were shipped to the central laboratory on dry ice as soon as possible after the blood sample had been drawn or stored frozen at −20° C. (−4° F.)±2° C. (±3.6° F.) until the shipment.
Statistical analysis: The change from baseline to Week 12 in mRAP, mPAP, cardiac index, TPR and SVO2 were analyzed on the FAS (with imputation) using an ANCOVA with factors for treatment group, background PAH-specific therapy at baseline (Yes/No as per IXRS, randomization stratification factor), region (Europe/North America/Latin America as per IXRS, randomization stratification factor) and a covariate for baseline corresponding variable. Other RHC variables are listed only. WHO FC is summarized on the FAS (with imputation) by time point and treatment group using frequency tables. […] Worsening was analyzed using a logistic regression model (exact) with covariates for treatment group, background PAH-specific therapy at baseline (Yes/No as per IXRS, randomization stratification factor) and region (Europe/North America/Latin America as per IXRS, randomization stratification factor). […] Change from baseline in 6MWD (up to Week 12) was analyzed using a mixed-effect model repeated measure (MMRM) with factors for treatment group, time point, treatment by time interaction, background PAH-specific therapy at baseline (Yes/No as per IXRS, randomization stratification factor) and region (Europe/North America/Latin America as per IXRS, randomization stratification factor), and covariates for baseline 6MWD and WHO FC. […] The ratio versus baseline in NT-proBNP was log-transformed and analyzed using an ANCOVA with covariates for treatment group, background PAH-specific therapy at baseline (Yes/No as per IXRS, randomization stratification factor), region (Europe/North America/Latin America as per IXRS, randomization stratification factor) and baseline log NT-proBNP. […]

[2] = tested on: patients with PoPH; experiment: Post-hoc: change in mPAP / PVR by baseline mPAP / PVR category; assay type: in vivo, human; details: for PVR Change from baseline to Week 12, Median / PVR Week 12, Median / PVR Change from baseline to Week 12, Mean / PVR Week 12, Mean / mPAP Week 12, Median / mPAP Week 12, Mean / mPAP Change from baseline to Week 12, Median / mPAP Change from baseline to Week 12, Mean: 10 mg, Full Analysis Set
Description: This example provides post hoc analyses of the study performed in Example 1. These analyses include: • To assess the effect of macitentan on mean pulmonary arterial pressure (mPAP) related to pre-treatment mPAP. • To assess the effect of macitentan on pulmonary vascular resistance (PVR) related to pre-treatment PVR.
The following exploratory endpoints were defined for the post hoc analyses: • mPAP change related to pre-treatment mPAP. • PVR change related to pre-treatment PVR
All analyses were performed on the full analysis set (FAS, as per randomization, N=85) and no data imputation was performed.
Risk categories are noted in Table 38. To analyze change in mPAP relative to baseline mPAP, the same mPAP categories were used as for transplant perioperative risk classification (Table 38). For the analysis of change in PVR relative to baseline PVR, waitlist mortality risk PVR categories were used (Table 38).

[3] = tested on: endothelin A and B receptors; details: nonclinical in vivo studies; cited from earlier work
[4] = PVR at baseline <= 450 dyn · sec/cm^5, n 12
[5] = PVR at baseline > 450 dyn · sec/cm^5, n 27
[6] = mPAP at baseline < 35 mmHg, n 2

CCCNS(=O)(=O)Nc1ncnc(OCCOc2ncc(Br)cn2)c1-c1ccc(Br)cc1 [macitentan, N-[5-(4-Bromophenyl)-6-[2-[(5-bromo-2-pyrimidinyl)oxy]ethoxy]-4-pyrimidinyl]-N′-propylsulfamide]
Patients with NT-proBNP above 300 ng/L at baseline decreasing to below threshold after 12 weeks ([1]; 6 of 16 macitentan patients, FAS no imputation, post-hoc): 37.5% | Geometric mean ratio of Week 12 to baseline NT-proBNP ([1]; FAS with imputation, macitentan group): 0.86 | NT pro-BNP shift: Week 12 Category 2 ([1]; Total, Full analysis set, 10 mg, N = 43): 9 n (%) | Macitentan-treated patients with a decrease in PVR at Week 12 compared to baseline ([2]; FAS no imputation, 41 patients): 95.3% | Macitentan-treated patients with a decrease in mPAP at Week 12 compared to baseline ([2]; FAS no imputation, thirty-eight patients): 88.3% | PVR Change from baseline to Week 12, Median [2, 4]: −120.0 dyn · sec/cm^5 | PVR Week 12, Median [2, 4]: 248.7 dyn · sec/cm^5 | PVR Change from baseline to Week 12, Mean ([2]; PVR at baseline <= 450 dyn · sec/cm^5, n 12, SD 71.23): −116.4 dyn · sec/cm^5 | PVR Week 12, Mean ([2]; PVR at baseline <= 450 dyn · sec/cm^5, n 12, SD 86.64): 264.6 dyn · sec/cm^5 | PVR Change from baseline to Week 12, Median [2, 5]: −244.9 dyn · sec/cm^5 | PVR Week 12, Median [2, 5]: 382.5 dyn · sec/cm^5 | PVR Change from baseline to Week 12, Mean ([2]; PVR at baseline > 450 dyn · sec/cm^5, n 27, SD 125.48): −249.4 dyn · sec/cm^5 | PVR Week 12, Mean ([2]; PVR at baseline > 450 dyn · sec/cm^5, n 27, SD 130.62): 400.7 dyn · sec/cm^5 | Mean (SD) decrease in mPAP at Week 12 ([2]; and <45 mmHg): 5.2 (4.22) mmHg | Mean (SD) decrease in PVR at Week 12 ([2]; baseline PVR <450 dyn·s/cm^5): 116.4 (71.23) dyn·s/cm^5 | Mean (SD) decrease in PVR at Week 12 ([2]; baseline PVR >450 dyn·s/cm^5): 249.4 (125.48) dyn·s/cm^5 | Mean (SD) decrease in mPAP at Week 12 ([2]; baseline mPAP <35 mmHg): 2.0 (5.66) mmHg | Mean (SD) decrease in mPAP at Week 12 ([2]; baseline mPAP ≥45 mmHg): 7.8 (5.27) mmHg | mPAP Week 12, Median ([2]; mPAP at baseline 35 to < 45 mmHg, n 13): 36.0 mmHg | mPAP Week 12, Mean ([2]; mPAP at baseline 35 to < 45 mmHg, n 13, SD 3.84): 35.4 mmHg | mPAP Change from baseline to Week 12, Median [2, 6]: −2.0 mmHg | mPAP Week 12, Median [2, 6]: 29.0 mmHg | mPAP Change from baseline to Week 12, Mean ([2]; mPAP at baseline < 35 mmHg, n 2, SD 5.66): −2.0 mmHg | mPAP Week 12, Mean ([2]; mPAP at baseline < 35 mmHg, n 2, SD 8.49): 29.0 mmHg | mPAP Week 12, Median ([2]; mPAP at baseline >= 45 mmHg, n 24): 43.0 mmHg | mPAP Week 12, Mean ([2]; mPAP at baseline >= 45 mmHg, n 24, SD 7.04): 44.0 mmHg | mPAP Change from baseline to Week 12, Median ([2]; mPAP at baseline ≥ 35 to < 45 mmHg, n 13): −5.0 mmHg | mPAP Change from baseline to Week 12, Mean ([2]; mPAP at baseline ≥ 35 to < 45 mmHg, n 13, SD 4.22): −5.2 mmHg | mPAP Change from baseline to Week 12, Median ([2]; mPAP at baseline ≥ 45 mmHg, n 24): −7.5 mmHg | mPAP Change from baseline to Week 12, Mean ([2]; mPAP at baseline ≥ 45 mmHg, n 24, SD 5.27): −7.8 mmHg | Potency compared with bosentan [3]: higher potency than bosentan
